Measurements reported in US20060069132A1, “Azolecarboxamide herbicides” (priority 2004, published 2006).

Columns and labels:
wild oat (AVEFA) = assay: Test J Compounds 2 and 6 alone and in combination with other herbicides, foliage spray; type: in vivo, Avena fatua; parameters: key: 0 = no effect, 100 = complete control; conditions: applied alone
From the text: (§1) Colby's Equation was used to calculate the expected additive herbicidal effect of the mixtures of Compound 6 with Harmony® Extra (i.e. a 2:1 mixture by weight of thifensulfuron-methyl and tribenuron-methyl). […]
(§2) Seeds of test plants consisting of barnyardgrass (ECHCG; Echinochloa crus-galli (L.) Beauv.), blackgrass (ALOMY; Alopecurus myosuroides Huds.), Surinam grass (BRADC; Urochloa decumbens (Staph) R. D. Webster, previously named Brachiaria decumbens Stapf), cocklebur (XANST, Xanthium strumarium L.), corn (ZEAMD, Zea mays L. cv. ‘Pioneer 33G26’), large crabgrass (DIGSA, Digitaria sanguinalis (L.) Scop.), giant foxtail (SETFA, Setaria faberi Herrm.), lambsquarters (CHEAL, Chenopodium album L.), morningglory (IPOCO, Ipomoea coccinea L.), pigweed (AMARE, Amaranthus retroflexus L.), velvetleaf (ABUTH, Abutilon theophrasti Medik.) wheat (TRZAS, Triticum aestivum L. cv. ‘Recital’) and wild oat (AVEFA, Avena fatua L.) were planted in Redi-Earth® planting medium (Scotts Company, 14111 Scottslawn Road, Marysville, Ohio 43041) comprising spaghnum peat moss and vermiculite. […] Also listed in Table J are the expected effects for the mixtures calculated using Colby's Equation.

wheat (TRZAS) = assay: as above; type: in vivo, Triticum aestivum; parameters: key: 0 = no effect, 100 = complete control; conditions: applied alone
From the text: as §1, §2

pigweed (AMARE) = assay: as above; type: in vivo, Amaranthus retroflexus; parameters: key to AMARE Obsd.: 0 = no effect, 100 = complete control; conditions: for AMARE Obsd.: applied alone
From the text: Colby's Equation was used to calculate the expected additive herbicidal effect of the mixtures of Compound 6 with Harmony® Extra (i.e. a 2:1 mixture by weight of thifensulfuron-methyl and tribenuron-methyl). Colby's Equation (Colby, S. R. “Calculating Synergistic and Antagonistic Responses of Herbicide Combinations,” Weeds, 15(1), pp 20-22 (1967)) calculates the expected additive effect of herbicidal mixtures, and for two active ingredients is of the form: Pa+b=Pa+Pb−(PaPb/100) wherein • Pa+b is the percentage effect of the mixture expected from additive contribution of the individual components, • Pa is the observed percentage effect of the first active ingredient at the same use rate as in the mixture, and • Pb is the observed percentage effect of the second active ingredient at the same use rate as in the mixture.
as §2, with “vermiculite. Seeds of small-seeded species were planted about 1 cm deep; larger seeds were planted about 2.5 cm deep. Plants were grown in a greenhouse using supplemental lighting to maintain a photoperiod of about 14 hours; daytime and nighttime temperatures were about 24-30° C. and 22-25° C., respectively.” for “vermiculite.”

winter barley = assay: Test F pre-/postemergence herbicide test; type: in vivo, Hordeum vulgare
From the text: (§3) Seeds of plant species selected from annual blugrass (Poa annua L.), blackgrass (Alopecurus myosuroides Huds.), catchweed bedstraw (Gallium aparine L.), common chickweed (Stellaria media (L.) Vill./Cyr.), downy bromegrass (Bromus tectorum L.), green foxtail (Setaria viridis (L.) Beauv.), Italian ryegrass (Lolium multiflorum Lam.), kochia (Kochia scoparia (L.). Schrad.), lambsquarters (Chenopodium album L.), littleseed canarygrass (Phalaris minor Retz.), pigweed (Amaranthus retroflexus L.), Russian thistle (Salsola kali L. ssp. Ruthenica (Iljin) Soo), wild buckwheat (Polygonum convolvulus L.), wild mustard (Sinapis arvensis L.), wild oat (Avena fatua L.), windgrass (Apera spica-venti (L.) Beauv.), winter barley (Hordeum vulgare L.), and wheat (Triticum aestivum L.) were planted and treated preemergence with test chemicals formulated in a non-phytotoxic solvent mixture which included a surfactant.
(§4) At the same time, plants selected from these crop and weed species were treated with postemergence applications of some of the test chemicals formulated in the same manner. Plants ranged in height from 2 to 18 cm (1- to 4-leaf stage) for postemergence treatments. Treated plants and controls were maintained in a greenhouse for 12 to 14 days, after which time all species were compared to controls and visually evaluated. Plant response ratings, summarized in Table F, are based on a scale of 0 to 100 where 0 is no effect and 100 is complete control. A dash (-) response means no test result.

green foxtail = assay: Test F pre-/postemergence herbicide test; type: in vivo, Setaria viridis
From the text: as §3, §4

wild oat = assay: Test F pre-/postemergence herbicide test; type: in vivo, Avena fatua
From the text: as §3, §4

Italian ryegrass = assay: Test F pre-/postemergence herbicide test; type: in vivo, Lolium multiflorum
From the text: as §3, §4

kochia = assay: Test F pre-/postemergence herbicide test; type: in vivo, Kochia scoparia
From the text: as §3, §4

## CCn1nc(C(C)(C)C)cc1C(=O)Nc1cc(C(=O)N(C)C)ccc1F [Compound 6, N-[5-[(dimethylamino)carbonyl]-2-fluorophenyl]-3-(1,1-dimethylethyl)-1-ethyl-1H-pyrazole-5-carboxamide]
Wild oat (AVEFA); 62 g a.i./ha
  AVEFA Obsd.: 10
Wild oat (AVEFA); 125 g a.i./ha
  AVEFA Obsd.: 25
Wheat (TRZAS); 62 g a.i./ha
  TRZAS Obsd.: 15
Wheat (TRZAS); 125 g a.i./ha
  TRZAS Obsd.: 30
Pigweed (AMARE); 62 g a.i./ha
  AMARE Obsd.: 28
Pigweed (AMARE); 125 g a.i./ha
  AMARE Obsd.: 60
Pigweed (AMARE); mixture with atrazine, pigweed, foliage spray, 15 days after treatment
  observed effect of mixture compared with additive effect expected from Colby's Equation: greater than additive

## CCn1nc(C(C)(C)C)cc1C(=O)Nc1cc(C(=O)OC(C)C)c(F)cc1F [Compound 248]
Winter barley; Postemergence, 31 g ai/ha
  Plant response rating (0-100), Barley, Winter: 25
Winter barley; Postemergence, 62 g ai/ha
  Plant response rating (0-100), Barley, Winter: 30
Winter barley; Postemergence, 125 g ai/ha
  Plant response rating (0-100), Barley, Winter: 30
Winter barley; Postemergence, 250 g ai/ha
  Plant response rating (0-100), Barley, Winter: 40
Winter barley; Preemergence, 31 g ai/ha
  Plant response rating (0-100), Barley, Winter: 0
Winter barley; Preemergence, 62 g ai/ha
  Plant response rating (0-100), Barley, Winter: 0
Winter barley; Preemergence, 125 g ai/ha
  Plant response rating (0-100), Barley, Winter: 0
Winter barley; Preemergence, 250 g ai/ha
  Plant response rating (0-100), Barley, Winter: 35
Green foxtail; Postemergence, 31 g ai/ha
  Plant response rating (0-100), Foxtail, Green: 50
Green foxtail; Postemergence, 62 g ai/ha
  Plant response rating (0-100), Foxtail, Green: 60
Green foxtail; Postemergence, 125 g ai/ha
  Plant response rating (0-100), Foxtail, Green: 60
Green foxtail; Postemergence, 250 g ai/ha
  Plant response rating (0-100), Foxtail, Green: 65
Green foxtail; Preemergence, 31 g ai/ha
  Plant response rating (0-100), Foxtail, Green: 65
Green foxtail; Preemergence, 62 g ai/ha
  Plant response rating (0-100), Foxtail, Green: 65
Green foxtail; Preemergence, 125 g ai/ha
  Plant response rating (0-100), Foxtail, Green: 100
Green foxtail; Preemergence, 250 g ai/ha
  Plant response rating (0-100), Foxtail, Green: 100
Wild oat; Postemergence, 31 g ai/ha
  Plant response rating (0-100), Oat, Wild: 45
Wild oat; Postemergence, 62 g ai/ha
  Plant response rating (0-100), Oat, Wild: 45
Wild oat; Postemergence, 125 g ai/ha
  Plant response rating (0-100), Oat, Wild: 60
Wild oat; Postemergence, 250 g ai/ha
  Plant response rating (0-100), Oat, Wild: 65
Wild oat; Preemergence, 31 g ai/ha
  Plant response rating (0-100), Oat, Wild: 40
Wild oat; Preemergence, 62 g ai/ha
  Plant response rating (0-100), Oat, Wild: 45
Wild oat; Preemergence, 125 g ai/ha
  Plant response rating (0-100), Oat, Wild: 50
Wild oat; Preemergence, 250 g ai/ha
  Plant response rating (0-100), Oat, Wild: 65
Italian ryegrass; Postemergence, 31 g ai/ha
  Plant response rating (0-100), Ryegrass, Italian: 45
Italian ryegrass; Postemergence, 62 g ai/ha
  Plant response rating (0-100), Ryegrass, Italian: 55
Italian ryegrass; Postemergence, 125 g ai/ha
  Plant response rating (0-100), Ryegrass, Italian: 60
Italian ryegrass; Postemergence, 250 g ai/ha
  Plant response rating (0-100), Ryegrass, Italian: 65
Italian ryegrass; Preemergence, 31 g ai/ha
  Plant response rating (0-100), Ryegrass, Italian: 30
Italian ryegrass; Preemergence, 62 g ai/ha
  Plant response rating (0-100), Ryegrass, Italian: 50
Italian ryegrass; Preemergence, 125 g ai/ha
  Plant response rating (0-100), Ryegrass, Italian: 50
Italian ryegrass; Preemergence, 250 g ai/ha
  Plant response rating (0-100), Ryegrass, Italian: 60
kochia; Postemergence, 31 g ai/ha
  Plant response rating (0-100), Kochia: 60
kochia; Postemergence, 62 g ai/ha
  Plant response rating (0-100), Kochia: 60
kochia; Postemergence, 125 g ai/ha
  Plant response rating (0-100), Kochia: 65
kochia; Postemergence, 250 g ai/ha
  Plant response rating (0-100), Kochia: 65
kochia; Preemergence, 31 g ai/ha
  Plant response rating (0-100), Kochia: 50
kochia; Preemergence, 62 g ai/ha
  Plant response rating (0-100), Kochia: 60
kochia; Preemergence, 125 g ai/ha
  Plant response rating (0-100), Kochia: 65
kochia; Preemergence, 250 g ai/ha
  Plant response rating (0-100), Kochia: 100
